Assay [1] addresses Bcl-2 protein (histag-Bcl-2, UniProtKB P10415) (Homo sapiens (Human), UniProt P10415). Put plainly: Inhibition of Bcl-2 by the fluorescence polarisation technique. The assay is classed as binding. As to conditions: fluorescence polarisation test; incubation for 2 hours; read-out: IC50 (nM) Bcl-2 FP. The source says:
For partial inhibitors, the percentage fluorescence polarisation inhibition for a given concentration of the test compound is indicated.
On the technique in general: Fluorescence polarisation rises when a labelled molecule tumbles more slowly, as on binding a larger partner.

For assay [2], the system named is RS4; 11 leukaemia cell line. Description: In vitro cytotoxicity, Microculture Tetrazolium Assay (MTT). It counts as cell-based. The conditions noted are these: Homo sapiens, 11 cells exposed for 48 hours. The procedure:
The cytotoxicity studies were carried out on the RS4; 11 leukaemia cell line and on H146 small Cell Lung Carcinoma cell line. The cells are distributed onto microplates and exposed to the test compounds for 48 hours. The cell viability is then quantified by a colorimetric assay, the Microculture Tetrazolium Assay (Cancer Res., 1987, 47, 939-942).

Counter-ions that a name gives are not always drawn. Where only a bound is given, the exact number is not on record here.

Chain of Bcl-2 protein (P10415 whole entry): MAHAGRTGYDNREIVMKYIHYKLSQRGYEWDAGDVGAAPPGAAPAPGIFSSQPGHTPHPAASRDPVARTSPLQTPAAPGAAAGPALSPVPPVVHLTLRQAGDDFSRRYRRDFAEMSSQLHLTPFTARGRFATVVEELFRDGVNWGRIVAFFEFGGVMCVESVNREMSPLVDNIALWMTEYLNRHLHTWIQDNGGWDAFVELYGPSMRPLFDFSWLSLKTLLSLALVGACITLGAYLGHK

By IC50 is commonly meant the concentration needed to halve the response being measured. `C[C@@H]1Cc2ccccc2CN1C(=O)c1cc2c(cc1-c1cc(C(=O)N(C)c3ccc(O)cc3)c3n1CCCC3)CCN(C(=O)C1(c3ccccc3)CC1)C2` [Example 109, N-(4-Hydroxyphenyl)-N-methyl-3-{7-[(3R)-3-methyl-1,2,3,4-tetrahydroisoquinoline-2-carbonyl]-2-(1-phenylcyclopropanecarbonyl)-1,2,3,4-tetrahydroisoquinolin-6-yl}-5,6,7,8-tetrahydroindolizine-1-carboxamide]: the values for the IC50 in assay [1] and in assay [2] were 8.6 nM and 89 nM, respectively.

Take `CCNC(=O)N1Cc2cc(C(=O)N3Cc4ccccc4C[C@H]3C)c(-c3cc(C(=O)N(C)c4ccc(O)cc4)c(C)n3C)cc2C1` [Example 110, N-Ethyl-5-{4-[(4-hydroxyphenyl)(methyl)carbamoyl]-1,5-dimethyl-1H-pyrrol-2-yl}-6-[(3R)-3-methyl-1,2,3,4-tetrahydroisoquinoline-2-carbonyl]-2,3-dihydro-1H-isoindole-2-carboxamide]: the values for the 50% inhibitory concentration (IC50) in assay [1] and in assay [2] were 19 nM and 329 nM, respectively.

Take `Cc1c(C(=O)N(C)c2ccc(O)cc2)cc(-c2cc3c(cc2C(=O)N2Cc4ccccc4C[C@H]2C)CN(C(=O)NCc2ccccc2)C3)n1C` [Example 111, N-Benzyl-5-{4-[(4-hydroxyphenyl)(methyl)carbamoyl]-1,5-dimethyl-1H-pyrrol-2-yl}-6-[(3R)-3-methyl-1,2,3,4-tetrahydroisoquinoline-2-carbonyl]-2,3-dihydro-1H-isoindole-2-carboxamide]: the IC50 came to 8.4 nM in assay [1] and 64 nM in assay [2].

Take `CC(=O)N1Cc2cc(C(=O)N3Cc4ccccc4C[C@H]3C)c(-c3cc(C(=O)N(C)c4ccc(O)cc4)c(C)n3C)cc2C1` [Example 112, 5-{2-Acetyl-6-[(3R)-3-methyl-1,2,3,4-tetrahydroisoquinoline-2-carbonyl]-2,3-dihydro-1H-isoindol-5-yl}-N-(4-hydroxyphenyl)-N,1,2-trimethyl-1H-pyrrole-3-carboxamide]: the IC50 in assay [1] turned out to be 42 nM; in assay [2] it was 394 nM.

Turning to `C[C@@H]1Cc2ccccc2CN1C(=O)c1cc2c(cc1-c1cc(C(=O)N(C)c3ccc(O)cc3)c3n1CCCC3)CCN(C(=O)Cc1ccc(CN3CCN(C)CC3)cc1)C2` [Example 113, N-(4-Hydroxyphenyl)-N-methyl-3-{7-[(3R)-3-methyl-1,2,3,4-tetrahydroisoquinoline-2-carbonyl]-2-(2-{4-[(4-methylpiperazin-1-yl)methyl]phenyl}acetyl)-1,2,3,4-tetrahydroisoquinolin-6-yl}-5,6,7,8-tetrahydroindolizine-1-carboxamide], the values for the IC50 in assay [1] and in assay [2] were 3.6 nM and 25 nM, respectively.

In the case of `Cc1c(C(=O)N(C)c2ccccc2)cc(-c2cc3c(cc2C(=O)N2Cc4ccccc4C[C@H]2C)CN(C(=O)Oc2ccccc2)CC3)n1C` [Example 114, Phenyl 6-{1,5-dimethyl-4-[methyl(phenyl)carbamoyl]-1H-pyrrol-2-yl}-7-[(3R)-3-methyl-1,2,3,4-tetrahydroisoquinoline-2-carbonyl]-1,2,3,4-tetrahydroisoquinoline-2-carboxylate], the IC50 in assay [1] was found to be 3.8 nM; in assay [2] it was 28 nM.

For the molecule `Cc1c(C(=O)N(C)c2ccccc2)cc(-c2cc3c(cc2C(=O)N2Cc4ccccc4C[C@H]2CN2CCOCC2)CN(C(=O)Oc2ccccc2)CC3)n1C` [Example 115, Phenyl 6-{1,5-dimethyl-4-[methyl(phenyl)carbamoyl]-1H-pyrrol-2-yl}-7-[(3S)-3-(morpholin-4-ylmethyl)-1,2,3,4-tetrahydroisoquinoline-2-carbonyl]-1,2,3,4-tetrahydroisoquinoline-2-carboxylate], the figures for the IC50 in assay [1] and in assay [2] were 3.4 nM and 24 nM, respectively.

As to `COc1ccc(CCCN2Cc3cc(C(=O)N4Cc5ccccc5C[C@H]4C)c(-c4cc(C(=O)N(C)c5ccc(O)cc5)c(C)n4C)cc3C2)cc1` [Example 116, N-(4-Hydroxyphenyl)-5-{2-[3-(4-methoxyphenyl)propyl]-6-[(3R)-3-methyl-1,2,3,4-tetrahydroisoquinoline-2-carbonyl]-2,3-dihydro-1H-isoindol-5-yl}-N,1,2-trimethyl-1H-pyrrole-3-carboxamide], the IC50 in assay [1] worked out at 21 nM; in assay [2] it was 181 nM.

`Cc1c(C(=O)N(C)c2ccccc2)cc(-c2cc3c(cc2C(=O)N2Cc4ccccc4C[C@H]2CN2CCOCC2)CN(C(=O)Cc2ccccc2)CC3)n1C` [Example 117, N,1,2-trimethyl-5-{7-[(3S)-3-(morpholin-4-ylmethyl)-1,2,3,4-tetrahydroisoquinoline-2-carbonyl]-2-(2-phenylacetyl)-1,2,3,4-tetrahydroisoquinolin-6-yl}-N-phenyl-1H-pyrrole-3-carboxamide]: the IC50 in assay [1] worked out at 2.5 nM; in assay [2], 39 nM.

As to `Cc1c(C(=O)N(C)c2ccccc2)cc(-c2cc3c(cc2C(=O)N2Cc4ccccc4C[C@H]2C)CN(C(=O)Cc2ccccc2)CC3)n1C` [Example 118, N,1,2-Trimethyl-5-{7-[(3R)-3-methyl-1,2,3,4-tetrahydroisoquinoline-2-carbonyl]-2-(2-phenylacetyl)-1,2,3,4-tetrahydroisoquinolin-6-yl}-N-phenyl-1H-pyrrole-3-carboxamide], the IC50 in assay [1] stood at 3.4 nM; in assay [2] it was 43 nM.

With `Cc1c(C(=O)N(C)c2ccccc2)cc(-c2cc3c(cc2C(=O)N2Cc4ccccc4C[C@H]2C)CNCC3)n1C` [Example 119, N,1,2-Trimethyl-5-{7-[(3R)-3-methyl-1,2,3,4-tetrahydroisoquinoline-2-carbonyl]-1,2,3,4-tetrahydroisoquinolin-6-yl}-N-phenyl-1H-pyrrole-3-carboxamide hydrochloride], the IC50 in assay [1] was 622 nM; in assay [2] it was greater than 150 nM.

For the molecule `CN(C(=O)c1cc(-c2cc3c(cc2C(=O)N2Cc4ccccc4C[C@H]2CN2CCOCC2)CN(C(=O)Oc2ccc(F)cc2)CC3)n2c1CCCC2)c1ccc(O)cc1` [Example 120, 4-Fluorophenyl 6-{1-[(4-hydroxyphenyl)(methyl)carbamoyl]-5,6,7,8-tetrahydroindolizin-3-yl}-7-[(3S)-3-(morpholin-4-ylmethyl)-1,2,3,4-tetrahydroisoquinoline-2-carbonyl]-1,2,3,4-tetrahydroisoquinoline-2-carboxylate], the IC50 in assay [1] amounted to 2.5 nM; in assay [2], 8.2 nM.

Regarding `COc1ccc(OC(=O)N2CCc3cc(-c4cc(C(=O)N(C)c5ccc(O)cc5)c5n4CCCC5)c(C(=O)N4Cc5ccccc5C[C@H]4CN4CCOCC4)cc3C2)cc1` [Example 121, 4-Methoxyphenyl 6-{1-[(4-hydroxyphenyl)(methyl)carbamoyl]-5,6,7,8-tetrahydroindolizin-3-yl}-7-[(3S)-3-(morpholin-4-ylmethyl)-1,2,3,4-tetrahydroisoquinoline-2-carbonyl]-1,2,3,4-tetrahydroisoquinoline-2-carboxylate], the IC50 amounted to 2.9 nM in assay [1] and 2.8 nM in assay [2].

Consider `CN(C(=O)c1cc(-c2cc3c(cc2C(=O)N2Cc4ccccc4C[C@H]2CN2CCOCC2)CN(C(=O)Oc2ccc(Cl)cc2)CC3)n2c1CCCC2)c1ccc(O)cc1` [Example 122, 4-Chlorophenyl 6-{1-[(4-hydroxyphenyl)(methyl)carbamoyl]-5,6,7,8-tetrahydroindolizin-3-yl}-7-[(3S)-3-(morpholin-4-ylmethyl)-1,2,3,4-tetrahydroisoquinoline-2-carbonyl]-1,2,3,4-tetrahydroisoquinoline-2-carboxylate], for which the IC50 worked out at 2.6 nM in assay [1] and 5.4 nM in assay [2].
